Test systems include 786-0; A498; A549; COLO 205; EKVX; HL-60; HT-29; Hs-578T; LOX IMVI; MDA-N; MOLT-4; OVCAR-4; OVCAR-5; RPMI-8226; SF-539; SK-OV-3; SW-620; TK-10; UACC-257; UACC-62.
What all share (test): inhibition of tumour cell growth, NCI panel, 48 h

Structures are written as SMILES.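 Compound exposure: 48 hours, 5 concentrations, 96-well plates. Abbreviation: GI50, concentration required for 50% inhibition of growth.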 Activity calls are given as the source filed them. Rule as the data show it: active = GI50 up to about 1.1 µM and inactive = higher.

For `COc1cc2c(cc1O)CC1c3c(cc(O)c(OC)c3-2)CCN1C` (stereo not given), the GI50 was > 100 µM (inactive) in the test on 786-0; > 100 µM (inactive) with A498; > 100 µM (inactive) in the test on A549; > 73.5 µM (inactive) with COLO 205; > 100 µM (inactive) in the test on EKVX; 91.4 µM (inactive) in the test on HL-60. Moreover, the GI50 in the test on HT-29 is 62.2 µM (inactive); in the test with Hs-578T, > 100 µM (inactive); in the test with LOX IMVI it was > 100 µM (inactive); in the test on MDA-N, > 100 µM (inactive); in the test on MOLT-4, > 58.3 µM (inactive); with OVCAR-4, > 100 µM (inactive). Also, the GI50 in the test with OVCAR-5 is > 100 µM (inactive); in the test with RPMI-8226, > 100 µM (inactive); with SF-539, > 39.9 µM (inactive); in the test with SK-OV-3, > 100 µM (inactive); with SW-620 it was > 100 µM (inactive); in the test with TK-10, > 100 µM (inactive). Further, the GI50 in the test on UACC-257 and with UACC-62 was > 100 µM (inactive) in each case.

Turning to `COC(=O)c1ccccc1/C=C1\Cc2ccc3c(c2C1=O)CCCC3`, the GI50 is > 100 µM (inactive) in the test with 786-0; > 100 µM (inactive) in the test with A498; > 100 µM (inactive) in the test with A549; > 100 µM (inactive) in the test with COLO 205; > 100 µM (inactive) with EKVX; > 10 µM (inactive) in the test on HL-60. Also, the GI50 in the test on HT-29, in the test on Hs-578T, in the test with LOX IMVI, in the test with MDA-N, in the test with MOLT-4 and with OVCAR-4 was > 100 µM (inactive) throughout. Also, the GI50 with OVCAR-5, in the test on RPMI-8226, with SF-539, with SK-OV-3, with SW-620 and in the test with TK-10 was > 100 µM (inactive) in each case. Also, the GI50 in the test with UACC-257 and in the test on UACC-62 was > 100 µM (inactive) in each case.

Turning to `Oc1cc2c3c(c1)CCCN3CCC2`, the GI50 in the test on 786-0, with A498, with A549, in the test on COLO 205, with EKVX and with HL-60 was > 10 µM (inactive) throughout. The GI50 in the test with HT-29, in the test with Hs-578T, in the test on LOX IMVI, in the test on MDA-N, with MOLT-4 and in the test on OVCAR-4 was > 10 µM (inactive) each time. The GI50 in the test with OVCAR-5, with RPMI-8226, in the test on SF-539, with SK-OV-3, with SW-620 and in the test with TK-10 was > 10 µM (inactive) in each case. Also, the GI50 in the test on UACC-257 and in the test on UACC-62 was > 10 µM (inactive) each time.

For `COc1ccc([C@@]23CCC(=O)C[C@@H]2N(C)CC3)cc1OC`, the GI50 with 786-0, in the test on A498, in the test on A549, in the test with COLO 205, in the test on EKVX and with HL-60 was > 100 µM (inactive) throughout. The GI50 in the test on HT-29, with Hs-578T, in the test on LOX IMVI, in the test with MDA-N, in the test on MOLT-4 and in the test with OVCAR-4 was > 100 µM (inactive) throughout. Further, the GI50 with OVCAR-5, in the test with RPMI-8226, in the test with SF-539, with SK-OV-3, in the test with SW-620 and in the test on TK-10 was > 100 µM (inactive) in each case. Further, the GI50 in the test with UACC-257 and in the test with UACC-62 was > 100 µM (inactive) in each case.

For the molecule `CCN1CCC(O)(/C=C/c2ccc(C)cc2C)C(C(=O)/C=C/c2ccc(C)cc2C)C1` (stereo not given), the GI50 with 786-0 was 1.71 µM (inactive); in the test with A498 it was 9.59 µM (inactive); in the test on A549, 4 µM (inactive); in the test on COLO 205, 1.98 µM (inactive); in the test with EKVX it was 2.74 µM (inactive); in the test with HL-60, 3.35 µM (inactive). Further, the GI50 in the test with HT-29 was 2.16 µM (inactive); with Hs-578T, 2.09 µM (inactive); in the test with LOX IMVI, 1.76 µM (inactive); with MDA-N, 2.2 µM (inactive); in the test on MOLT-4 it was 1.28 µM (inactive); in the test with OVCAR-4 it was 2.99 µM (inactive). Besides, the GI50 with OVCAR-5 was 4.29 µM (inactive); with RPMI-8226, 4.76 µM (inactive); with SF-539, 1.92 µM (inactive); with SK-OV-3 it was 9.57 µM (inactive); in the test on SW-620 it was 3.16 µM (inactive); in the test with TK-10, 1.64 µM (inactive). The GI50 in the test with UACC-257 is 4.99 µM (inactive); in the test on UACC-62, 3.41 µM (inactive).

For `O=c1[nH]nc(-c2ccc([N+](=O)[O-])cc2)n1/N=C/c1ccc([N+](=O)[O-])cc1`, the GI50 was 78.7 µM (inactive) in the test with 786-0; > 100 µM (inactive) in the test on A498; 90.8 µM (inactive) in the test with A549; > 100 µM (inactive) in the test with COLO 205; > 100 µM (inactive) in the test with EKVX; 30.4 µM (inactive) in the test with HL-60. For the same molecule, the GI50 in the test on HT-29 is 74 µM (inactive); in the test with Hs-578T, > 100 µM (inactive); in the test with LOX IMVI, 0.483 µM (active); with MDA-N it was > 100 µM (inactive); with MOLT-4, 23.6 µM (inactive); in the test on OVCAR-4, 52.1 µM (inactive). The GI50 is > 100 µM (inactive) in the test with OVCAR-5; 38.5 µM (inactive) with RPMI-8226; > 100 µM (inactive) in the test with SF-539; > 100 µM (inactive) with SK-OV-3; > 100 µM (inactive) in the test with SW-620; > 100 µM (inactive) in the test with TK-10. For the same molecule, the GI50 in the test with UACC-257 is > 100 µM (inactive); with UACC-62, 71.4 µM (inactive).

`CCN(CC)c1ccc(/C=C2/C[N+](C)(C)C/C(=C/c3ccc(N(CC)CC)cc3)C2=O)cc1`: the GI50 was 3.12 µM (inactive) in the test with 786-0; 12.4 µM (inactive) with A498; 4.92 µM (inactive) in the test on A549; 1.29 µM (inactive) in the test on COLO 205; 5.96 µM (inactive) in the test with EKVX; 0.365 µM (active) in the test on HL-60. Moreover, the GI50 in the test with HT-29 was 1.58 µM (inactive); in the test with Hs-578T, 2.47 µM (inactive); with LOX IMVI, 1.69 µM (inactive); in the test with MDA-N, 1.66 µM (inactive); with MOLT-4 it was 1.51 µM (inactive); in the test on OVCAR-4, 3.01 µM (inactive). The GI50 in the test on OVCAR-5 was 9.73 µM (inactive); in the test on RPMI-8226 it was 0.653 µM (active); with SF-539, 2.32 µM (inactive); in the test with SK-OV-3 it was 9.29 µM (inactive); in the test with SW-620 it was 2.67 µM (inactive); in the test with TK-10, 9.84 µM (inactive). The GI50 with UACC-257 was 2.09 µM (inactive); with UACC-62, 2.01 µM (inactive).

Consider `CCC1CCC2C3CC=C4CC(OC(C)=O)C(N)CC4(C)C3CCC12C` (stereo not given), for which the GI50 in the test with 786-0 was 2.02 µM (inactive); in the test on A498 it was 5.25 µM (inactive); with A549 it was 2.07 µM (inactive); in the test with COLO 205, 5.18 µM (inactive); in the test on EKVX, 4.62 µM (inactive); in the test on HL-60, 2 µM (inactive). The GI50 in the test on HT-29 is 2.36 µM (inactive); with Hs-578T, 1.93 µM (inactive); in the test with LOX IMVI, 1.8 µM (inactive); with MDA-N it was 2.7 µM (inactive); in the test on MOLT-4, 2.37 µM (inactive); with OVCAR-4, 4.94 µM (inactive). Moreover, the GI50 is 6.21 µM (inactive) in the test on OVCAR-5; 2.69 µM (inactive) in the test with RPMI-8226; 1.86 µM (inactive) in the test with SF-539; 9.53 µM (inactive) in the test with SK-OV-3; 3.21 µM (inactive) in the test on SW-620; 2.66 µM (inactive) with TK-10. Also, the GI50 with UACC-257 was 2.17 µM (inactive); with UACC-62 it was 4.89 µM (inactive).

As to `O=CCOCc1cc2c(cc1Br)OCO2`, the GI50 in the test on 786-0 is 17.3 µM (inactive); in the test with A498 it was > 100 µM (inactive); with A549 it was > 100 µM (inactive); in the test with COLO 205, > 100 µM (inactive); with EKVX it was > 100 µM (inactive); in the test with HL-60, 20.9 µM (inactive). Moreover, the GI50 was 19 µM (inactive) in the test with HT-29; 17.1 µM (inactive) with Hs-578T; 19.6 µM (inactive) in the test with LOX IMVI; 37.2 µM (inactive) in the test on MDA-N; 30.1 µM (inactive) in the test on MOLT-4; 20.9 µM (inactive) in the test with OVCAR-4. Moreover, the GI50 is > 100 µM (inactive) with OVCAR-5; 40.6 µM (inactive) in the test on RPMI-8226; 25.2 µM (inactive) with SF-539; > 100 µM (inactive) with SK-OV-3; 20.9 µM (inactive) with SW-620; 52.1 µM (inactive) in the test on TK-10. The figures for the GI50 with UACC-257 and with UACC-62 were > 100 µM (inactive) and 43.4 µM (inactive), respectively.

For `CCCCCCCCCCCCCCCCOP(=O)(O)OP(=O)(O)OCC1OC(n2ccc(N)nc2=O)CC1O` (stereo not given), the GI50 in the test with 786-0, in the test on A498, in the test on A549, with COLO 205, in the test on EKVX and with HL-60 was > 100 µM (inactive) each time. The GI50 in the test with HT-29, in the test with Hs-578T, with LOX IMVI, in the test with MDA-N, in the test on MOLT-4 and in the test with OVCAR-4 was > 100 µM (inactive) throughout. Also, the GI50 in the test with OVCAR-5, in the test on RPMI-8226, in the test on SF-539, with SK-OV-3, in the test on SW-620 and in the test with TK-10 was > 100 µM (inactive) each time. The GI50 in the test with UACC-257 and in the test with UACC-62 was > 100 µM (inactive) in each case.
